Key:
[1] = tested on: MDCK cells; experiment: Cell viability, VI-CELL trypan blue exclusion; format: cell-based; details: monitored up to 60 hrs
Method: Cell viability assays were performed using MDCK cells treated with 1 uM sulphonamide or DMSO control. Cell viability was monitored over time up to 60 hrs using a VI-CELL machine (Beckman Coulter)(cell viability measured based on trypan blue exclusion). The sulphonamide analog used herein is not a marketed drug, therefore toxicity was conducted to identify cell viability over the course of incubation at the highest tested concentration of 10 μM and 60 hours of contact. […] At least 91% viability is detected in cells treated with sulphonamide.

[2] = tested on: H3N2 strain; experiment: Additional SAR studies, 10 ml viral cultures; format: cell-based, influenza H3N2; details: 0.05 uM
Method: Additional SAR studies were carried out to further identify candidate compounds to increase yields. 165 analogs tested at 0.05 uM in 10 ml viral cultures with a H3N2 strain. BYF589 enhanced yield over no-compound (DMSO) control by ˜2 fold. 14 of the 165 screened were as good as or better in enhancing HA yields than BYF589 at the concentration tested.

[3] = tested on: cellular cholesterol; experiment: Total cellular cholesterol (Amplex Red); format: cell-based; details: normalized to DMSO
Method: Possible effects of BYF589 as well as various enzyme inhibitors of the pathway on the cell viability and total cellular cholesterol levels were examined. Tested samples included DMSO, BYF589 (1 μM), MEV (100 μM), FTI (0.5 μM), ZA (1 μM) and GTI (0.5 μM).
Free cholesterol is oxidized by cholesterol oxidase to form a cholesterol ketone and H2O2, which then reacts with Amplex Red+HRP to produce the fluorescent product resorufin.

[4] = tested on: IP10 and IFNB1; format: cell-based
[5] = tested on: virus-infected host cell culture; format: cell-based, influenza; details: versus control without compound
[6] = tested on: A/Victoria/361/2011 (IVR-165) (high-expressing); experiment: ambr15 mini-bioreactor and shake flask comparison, A strain; format: cell-based, influenza A H3N2; details: CDM and DM134 media, shake flasks and 15 ml bioreactors
[7] = tested on: MDCK 33016PF cells; details: 24 hours; BYF589 1 μM, MEV 100 μM, FTI 0.5 μM, ZA 1 μM, GTI 0.5 μM

SMILES: O=C(O)C[C@H](O)C[C@H](O)/C=C/c1c(C2CC2)nc2ccccc2c1-c1ccc(F)cc1 [Compound G, (3R, 5S, 6E)-7-[2-cyclopropyl-4-(4-fluorophenyl)-quinolin-3-yl)-3,5-dihydroxyhept-6-enoic acid]
- impact on cell viability [1]: Neither sulphonamide nor pitavastatin had a negative impact on cell viability
- yield enhancement over no-compound (DMSO) control [2]: ~2 fold
- cellular cholesterol levels, compound alone [3]: lower cholesterol
- delay time of gene induction (measured at peak) ([4]; both genes, versus absence of compound): at least two hours
- induction of IFNb and IP10 ([4]; virus-infected MDCK cells, preliminary qRT-PCR data): delayed/suppressed induction
- increase in HA yield at 24 hours, compound added at T=2, 4 [5]: no significant enhancement in HA yield
- increase in HA yield at 24 hours, compound added at T=6 [5]: no significant enhancement in HA yield
- increase in HA yield at 24 hours, compound added at time of infection (T=0) [5]: approximately 4 fold
- HA yield enhancement, high-expressing A strain [6]: but not a high-expressing H3N2 strain
- effect on cell viability [7]: no negative effect on cell viability

Source: patent US11897918B2, “Compositions and methods to increase production” (priority 2014, dated 2024)
